Converted amounts (≈) assume the structure as drawn.
What was measured:
Recombinant HIV protease = biological target: T1, Recombinant HIV protease (Human immunodeficiency virus type 1 group M subtype B, UniProt P04585); test: HIV protease inhibitory activity (cleavage of synthetic hepta-peptide, HPLC); assay type: biochemical; conditions: for inhibition at 0.05 µM / HIV protease inhibitory activity (%): 37° C., 60 min; for inhibition at 5 µM: read-out: HIV protease inhibitory activity (%)
T1 construct: Recombinant HIV protease
Description: Recombinant HIV protease (Biochemistry, 250 (9), 264 (1990)) and synthetic hepta-peptide (H-Ser-Gln-Asn-Tyr-Pro-Ile-Val-OH/trifluoroacetic acid salt) were used for assay of protease activity. Peptide fragment H-Pro-Ile-Val-OH formed by cleavage between -Tyr . . . Pro of said substrate after a reaction in the presence of various concentration of tested compound at 37° C. for 60 min. was determined by reversed phase HPLC and the inhibitory rate was calculated (referred to Japanese laid-open unexamined patent, No. 170722/1993).
The concentration of tested compound represents the final concentration thereof of the reaction mixture.

HTLV-IIIB virus = test: Anti-HIV activity: protection of HTLV-IIIB infected MT-4 cells, MTT method; assay type: cell-based; conditions: MT-4 cells infected with HTLV-IIIB, 5 day culture; for EC50: Human immunodeficiency virus 1, MT4, 120 h
Description: The anti-HIV activity of the dipeptide compound of the present invention was evaluated as described below. That is, the inhibitory action of the compound on formation of HIV virus particles which infects T lymphocyte was evaluated by potency to prevent death of T lymphocyte accompanied by said virus infection.
(§1) According to a test method which was already reported in publications (H.Nakashima et al., Antimicrob. Agents Chemother.36, 1249-1255 (1992), etc.,), anti-HIV activity was evaluated, by using MT-4 cell line and HTLV-IIIB virus, MT-4 cells (2.5×10^4 well, MOI:001) infected with said HTLV-IIIB virus just before the addition were into 96-well microtiter plate wherein each well contained various concentration of tested compound. At the same time, in order to investigate cytotoxicity of tested compounds to MT-4 cell line, non-infected MT-4 cell line was cultured in the presence of various kinds of tested compound. After 5 day culture at 37° C. in a CO2 incubator, the number of vial cells was counted by MTT method.
Virus whose infectious value was 3.8×10^4 TCID 50/ml was used.

MT-4 cell line = test: Cytotoxicity to non-infected MT-4 cell line, MTT method; assay type: cell-based; conditions: non-infected MT-4 cells, 5 day culture
Description: as §1, with “method. […]” for “method.”

[1] = Pharmacokinetics in rats, intravenous or intraduodenal administration, plasma concentration; assay type: in vivo
Description: Metabolic characteristics of the dipeptide compounds of the present invention was evaluated using rats. Tested compounds dissolved in vehicle was administered intraduodenally or intravenously. After administration, blood was taken and the concentration of residual tested compound in plasma was analyzed. The dosage of the tested compound was described in table 3.

Structure (SMILES) | inhibition at 0.05 µM (Recombinant HIV protease; concentration 50 nM (final)) [%] | inhibition at 5 µM (Recombinant HIV protease) [%] | EC50 (HTLV-IIIB virus) [µg/mL] | Cytotoxicity CC50 (MT-4 cell line) [µg/mL] | AUC ([1]; i.d., 10.0 mg/kg) [µg/mL/min] | AUC ([1]; i.v., 10.0 mg/kg) [µg/mL/min] | MRT ([1]; i.v., 10.0 mg/kg) [min] | Anti-HIV activity EC50 (HTLV-IIIB virus) [µg/mL] | HIV protease inhibitory activity (%) (Recombinant HIV protease; concentration 50 nM (final)) | HIV protease inhibitory activity (%) (Recombinant HIV protease; concentration 5 μM (final)) | AUC ([1]; i.d., 20.0 mg/kg) [µg/mL/min]
CCc1c(O)cccc1C(=O)N[C@@H](Cc1ccccc1)[C@H](O)C(=O)N1CSC[C@H]1C(=O)NC(C)(C)C [Compound of example 31, (R)-N-tert-butyl-3-[(2S,3S)-2-hydroxy-3-(2-ethyl-3-hydroxybenzoyl)amino-4-phenylbutanoyl]-1,3-thiazolidine-4-carboxamide] | 45.6 | 97.5 | 1.46 (≈ 2.84 µM) | 168 | 99 | 276 | 96.0 |  |  |  | 
CCc1c(O)cccc1C(=O)N[C@@H](Cc1ccccc1)[C@H](O)C(=O)N1CSC[C@H]1C(=O)NCc1ccccc1C [Compound of example 35, (R)-N-(2-methylbenzyl)-3-[(2S,3S)-3-(2-ethyl-3-hydroxybenzoyl)amino-2-hydroxy-4-phenylbutanoyl]-1,3-thiazolidine-4-carboxamide] | 48.8 | 98.1 | 4.15 (≈ 7.39 µM) | 90.9 |  |  |  |  |  |  | 
CSC[C@H](NC(=O)COc1cccc2cnccc12)C(=O)N[C@@H](Cc1ccccc1)[C@H](O)C(=O)N1CSC[C@H]1C(=O)NC(C)(C)C [KNI-272, (R)-3-[(2S,3S)-3-(N-(isoquinoline-5-yloxy)acetyl-methylthio-L-alanyl)amino-2-hydroxy-4-phenylbutanoyl]1,3-thiazolidine-4-N'-t-butylcarboxamide, reference compound] |  |  |  | 115 | 98 | 224 |  | 0.21 |  |  | 
Cc1c(O)cccc1C(=O)N[C@@H](Cc1ccccc1)[C@H](O)C(=O)N1CSC(C)(C)[C@H]1C(=O)NC(C)(C)C [Compound of example 22, (R)-N-tert-butyl-3-[(2S,3S)-2-hydroxy-3-[3-hydroxy-2-methylbenzoy 1]amino-4-phenylbutanoyl]-5,5-dimethyl-1,3-thiazolidine-4-carboxamide] |  |  |  | 156 |  | 111 |  | 0.15 | 87.6 | 99.0 | 106
Cc1c(O)cccc1C(=O)N[C@@H](Cc1ccccc1)[C@H](O)C(=O)N1CO[C@H](C)[C@H]1C(=O)NC(C)(C)C [Compound of example 30, (4S,5R)-N-tert-butyl-3-[(2S,3S)-2-hydroxy-3-(2-methyl-3-hydroxybenzoyl)amino-4-phenylbutanoyl]-5-methyl-1,3-oxazolidine-4-carboxamide] | 21.5 | 96.9 | 1.4 (≈ 2.81 µM) | 191 |  |  |  |  |  |  | 
CCc1c(O)cccc1C(=O)N[C@@H](Cc1ccccc1)[C@H](O)C(=O)N1CSC(C)(C)[C@H]1C(=O)NC(C)(C)C [Compound of example 36, (R)-N-tert-butyl-3-[(2S,3S)-3-(2-ethyl-3-hydroxybenzoyl)amino-2-hydroxy-4-phenylbutanoyl]-5,5-dimethyl-1,3-thiazolidine-4-carboxamide] | 83.5 | > 99 | 0.54 (≈ 0.997 µM) | 103 | 64 | 174 |  |  |  |  | 
Cc1c(O)cccc1C(=O)N[C@@H](Cc1ccccc1)[C@H](O)C(=O)N1CS(=O)(=O)C[C@H]1C(=O)NC(C)(C)C [Compound of example 28, (R)-N-tert-butyl-3-[(2S,3S)-2-hydroxy-3-(2-methyl-3-hydroxybenzoyl)amino-4-phenylbutanoyl]-1,3-thiazolidine-1,1-dioxide-4-carboxamide] |  |  |  | 146 |  |  |  | 1.80 | 23.8 | 96.1 | 
CCc1c(O)cccc1C(=O)N[C@@H](Cc1ccccc1)[C@H](O)C(=O)N1CSC(C)(C)[C@H]1C(=O)NCc1ccccc1C [Compound of example 38, (R)-N-(2-methylbenzyl)-3-[(2S,3S)-3-(2-ethyl-3-hydroxybenzoyl)amino-2-hydroxy-4-phenylbutanoyl]-5,5-dimethyl-1,3-thiazolidine-4-carboxamide] | 97.3 | > 99 | 0.18 (≈ 0.305 µM) | 19.5 |  |  |  |  |  |  | 
Cc1ccccc1CNC(=O)[C@@H]1CSCN1C(=O)[C@@H](O)[C@H](Cc1ccccc1)NC(=O)c1cccc(O)c1C [Compound of example 34, (R)-N-(2-methylbenzyl)-3-[(2S,3S)-3-(3-hydroxy-2-methylbenzoyl)amino-2-hydroxy-4-phenylbutanoyl]-1,3-thiazolidine-4-carboxamide] | 69.8 | 96.7 | 5.35 (≈ 9.77 µM) | 24.5 | 40 | 124 |  |  |  |  | 
Cc1c(O)cccc1C(=O)N[C@@H](Cc1ccccc1)[C@H](O)C(=O)N1CSC[C@H]1C(=O)NC(C)(C)C [Compound of example 21, (R)-N-tert-butyl-3-[(2S,3S)-2-hydroxy-3-[3-hydroxy-2-methylbenzoy 1]amino-4-phenylbutanoyl]-1,3-thiazolidine-4-carboxamide] |  |  |  | 184 |  | 111 |  | 0.70 |  |  | 101
Cc1c(O)cccc1C(=O)N[C@@H](Cc1ccccc1)[C@H](O)C(=O)N1CCC[C@H]1C(=O)NC(C)(C)C [Compound of example 24, N-tert-butyl-1-[(2S,3S)-2-hydroxy-3-N-[3-hydroxy-2-methylbenzoyl]amino-4-phenylbutanoyl]-L-prolinamide] |  |  |  | 231 |  |  |  | 1.97 | 17.6 | 94.2 | 

From patent publication US5962640A, “Methods for preparing novel dipeptide compounds or pharmacuetically acceptable salts thereof” (Japan Energy Corporation, priority 1995, dated 1999)
